Data set [1] concerns the target human inducible NO-synthase (Homo sapiens, UniProt P35228). The data set is described as follows: Measurement of inducible NO-synthase activity ([3H]arginine conversion). The data set is classed as biochemical. Conditions: crude cytosolic fraction containing human inducible NO-synthase; 0.1 μM arginine; 45 to 60 min at 37° C.; read-out: Inhibition of iNOS activity [measured as -logIC50 (mol/l)] (converted). The method, then:
The assay is performed in 96well microtiter F-plates (Greiner, Frickenhausen, FRG) in a total volume of 100 μl in the presence of 100 nM calmodulin, 226 μM CaCl2, 477 μM MgCl2, 5 μM flavin-adenine-dinucleotide (FAD), 5 μM flavin mononucleotide (FMN), 0.1 mM NADPH, 7 mM glutathione, 10 μM BH4 and 100 mM HEPES pH 7.2. Arginine concentrations are 0.1 μM for enzyme inhibition experiments. 150000 dpm of [^3H]arginine are added to the assay mixture. Enzyme reaction is started by the addition of 4 μg of a crude cytosolic fraction containing human inducible NO-synthase and the reaction mixture is incubated for 45 to 60 min at 37° C. Enzyme reaction is stopped by adding 10 μl of 2M MES-buffer pH 5.0. 50 μl of the incubation mixture are transferred into a MADP N65 filtration microtiter plate (Millipore, Eschborn, FRG) containing already 50 μl of AG-50W-X8 cation exchange resin (Biorad, München, FRG). The resin in the Na loaded form is pre-equilibrated in water and 70 μl (corresponding to 50 μl dry beads) are pipetted under heavy stirring with a 8 channel pipette into the filtration plate. After pipetting 50 μl of the enzyme reaction mixture onto the filtration plates, the plates are placed on a filtration manifold (Porvair, Shepperton, UK) and the flow through is collected in Pico scintillation plates (Packard, Meriden, CT). The resin in the filtration plates is washed with 75 μl of water (1×50 μl and 1×25 μl) which is also collected in the same plate as the sample. The total flow through of 125 μl is mixed with 175 μl of Microscint-40 scintillation cocktail (Packard) and the scintillation plate is sealed with TopSeal P-foil (Packard). Scintillation plates are counted in a scintillation counter.
For the measurement of inducible NO-synthase-inhibiting potencies of compounds increasing concentrations of inhibitors were included into the incubation mixture. IC50-values were calculated from the percent inhibition at given concentrations by nonlinear least square fitting.

One may read the melting point as the temperature of the solid-liquid transition.

With `COc1ccnc(CCc2nc3cc(-c4ccco4)cnc3[nH]2)c1` [Example 1, 6-Furan-2-yl-[2-(4-methoxypyridin-2-yl)ethyl]-3H-imidazo[4,5-b]pyridine], the melting point was 147 to 148 °C. For the same molecule, the IC50 in data set [1] was 0.049 µM.

For the molecule `COc1ccnc(CCc2nc3cc(-c4cc5ccccc5o4)cnc3[nH]2)c1` [Example 10, 6-Benzofuran-2-yl-2-[2-(4-methoxy-pyridin-2-yl)-ethyl]-3H-imidazo[4,5-b]pyridine], the IC50 in data set [1] was 0.0309 to 0.245 µM.

With `COc1ccnc(CCc2nc3cc(-c4ccc5[nH]ccc5c4)cnc3[nH]2)c1` [Example 6, 6-(1H-Indol-5-yl)-2-[2-(4-methoxypyridin-2-yl)ethyl)-3H-imidazo-[4,5-b]pyridine], the melting point fell in the range of 241 to 242 °C. Moreover, the IC50 in data set [1] is 0.049 µM.

With `COc1ccnc(CCc2nc3cc(-c4nc5cc(C)ccc5[nH]4)cnc3[nH]2)c1` [Example 8, 2-[2-(4-Methoxy-pyridin-2-yl)-ethyl]-6-(5-methyl-1H-benzoimidazol-2-yl)-3H-imidazo[4,5-b]pyridine], in data set [1], the IC50 was 0.0309 to 0.245 µM.

For the molecule `COc1ccnc(CCc2nc3cc(-c4cc5ccccc5s4)cnc3[nH]2)c1` [Example 11, 6-Benzo[b]thiophen-2-yl-2-[2-(4-methoxy-pyridin-2-yl)-ethyl]-3H-imidazo[4,5-b]pyridine], the IC50 in data set [1] was 0.0309 to 0.245 µM.

For `COc1ccnc(CCc2nc3cc(-c4ccncc4)cnc3[nH]2)c1` [Example 3, 2-[2-(4-Methoxypyridin-2-yl)ethyl]-6-(pyridin-4-yl)-3H-imidazo-[4,5-b]pyridine], the melting point is 237 to 238 °C. Moreover, in data set [1], the IC50 is 0.055 µM.

In the case of `COc1ccnc(CCc2nc3cc(-c4csc5ccccc45)cnc3[nH]2)c1` [Example 9, 6-Benzo[b]thiophen-3-yl-2-[2-(4-methoxy-pyridin-2-yl)-ethyl]-3H-imidazo[4,5-b]pyridine], the IC50 in data set [1] was 0.0309 to 0.245 µM.

Take `COc1ccnc(CCc2nc3cc(-c4nc5ccccc5[nH]4)cnc3[nH]2)c1` [Example 7, 6-(1H-Benzoimidazol-2-yl)-2-[2-(4-methoxy-pyridin-2-yl)-ethyl]-3H-imidazo[4,5-b]pyridine]: the IC50 in data set [1] was 0.0309 to 0.245 µM.

In the case of `COc1ccnc(CCc2nc3cc(-c4ccc(-c5ccccc5)s4)cnc3[nH]2)c1` [Example 13, 2-[2-(4-Methoxy-pyridin-2-yl)-ethyl]-6-(5-phenyl-thiophen-2-yl)-3H-imidazo[4,5-b]pyridine], the IC50 in data set [1] is 0.0309 to 0.245 µM.

As for `COc1ccnc(CCc2nc3cc(-c4ccsc4)cnc3[nH]2)c1` [Example 5, 2-[2-(4-Methoxypyridin-2-yl)ethyl]-6-(thiophen-3-yl)-3H-imidazo-[4,5-b]pyridine], the melting point was in the range of 154 to 155 °C. The IC50 in data set [1] is 0.0347 µM.

In the case of `COc1ccnc(CCc2nc3cc(-c4ccoc4)cnc3[nH]2)c1` [Example 2, 6-Furan-3-yl-[2-(4-methoxypyridin-2-yl)ethyl]-3H-imidazo[4,5-b]pyridine], the melting point was in the range of 193 to 194 °C. Moreover, the IC50 in data set [1] is 0.0457 µM.

On to `COc1ccnc(CCc2nc3cc(-c4cccs4)cnc3[nH]2)c1` [Example 4, 2-[2-(4-Methoxypyridin-2-yl)ethyl]-6-(thiophen-2-yl)-3H-imidazo-[4,5-b]pyridine], for which the melting point was in the range of 132 to 133 °C. Also, the IC50 in data set [1] is 0.0245 µM.

With `COc1ccnc(CCc2nc3cc(-c4ccc(C)s4)cnc3[nH]2)c1` [Example 12, 2-[2-(4-Methoxy-pyridin-2-yl)-ethyl]-6-(5-methyl-thiophen-2-yl)-3H-imidazo[4,5-b]pyridine], the IC50 in data set [1] was 0.0309 to 0.245 µM.

The record behind these values is patent US20080125460A1, “Imidazopyridine-Derivatives As Inducible No-Synthase Inhibitors” (Altana Pharma AG, priority 2003, published 2008).
